From patent US10227331B2 (priority 2015, dated 2019)

Experiments:
IMP-1 = IMP-1 (Serratia marcescens, UniProt P52699); assay: biochemical; type: biochemical; settings: CCF2-FA substrate, 2 hours at 25° C; read-out: IMP-1 IC50
Procedure, shortened: (§1)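 Test compound, enzyme and the FRET cephalosporin substrate CCF2-FA are incubated together for 2 hours at 25° C. Cleavage is followed by fluorescence, and IC50 values are derived from semi-logarithmic inhibition curves fitted with a 4-parameter model.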

NDM-1 = NDM-1 (Klebsiella pneumoniae, UniProt C7C422); assay: biochemical; type: biochemical; settings: CCF2-FA substrate, 2 hours at 25° C; read-out: NDM-1 IC50
Procedure, shortened: as §1

[1] = test system: P. aeruginosa expressing IMP-1, efflux− (MB9799); assay: Efflux: concentration of MBL inhibitor which restores susceptibility to imipenem; type: cell-based, Pseudomonas aeruginosa; settings: imipenem at 2 μg/mL, in the presence of a class A, C, D serine β-lactamase inhibitor closely related to relebactam
Description: (§2) The strain background is Pseudomonas aeruginosa PAO1.

VIM-1 = VIM-1 (Pseudomonas aeruginosa (strain ATCC 15692 / DSM 22644 / CIP 104116 / JCM 14847 / LMG 12228 / 1C / PRS 101 / PAO1), UniProt A0A0F7KYQ8); assay: biochemical; settings: CCF2-FA substrate, 2 hours at 25° C
Procedure, shortened: as §1

[2] = test system: Serratia marcescens expressing IMP-1 (CL5741); type: cell-based; settings: with imipenem 1 μg/ml; 95% inhibition of bacterial growth
Procedure, shortened: (§3)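 Clinical strains grown overnight on blood agar, then diluted 1:100 in 1.1× CAMHB and exposed to test compound with imipenem at 1 μg/ml. Incubation was 22–24 h at 35° C; growth was read by absorbance to find the compound concentration restoring imipenem susceptibility.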

[3] = test system: Klebsiella pneumoniae expressing VIM-1 (IHMA599644); type: cell-based; settings: with imipenem 1 μg/ml; 95% inhibition of bacterial growth
Procedure, shortened: as §3

[4] = test system: Escherichia coli expressing NDM-1 (CLB30005, CLB30016); type: cell-based; settings: with imipenem 1 μg/ml; 95% inhibition of bacterial growth
Procedure, shortened: as §3

[5] = test system: P. aeruginosa expressing IMP-1, efflux+ (MB9798); type: cell-based, Pseudomonas aeruginosa; settings: for P. aeruginosa expressing IMP-1, efflux+ (MB9798) MITC95: imipenem at 2 μg/mL, in the presence of a class A, C, D serine β-lactamase inhibitor closely related to relebactam; for Efflux ratio: ratio MITC95 PA_9798/MITC95 PA_9799
Description: as §2

Chain of IMP-1 (P52699 whole entry, looked up, species assumed): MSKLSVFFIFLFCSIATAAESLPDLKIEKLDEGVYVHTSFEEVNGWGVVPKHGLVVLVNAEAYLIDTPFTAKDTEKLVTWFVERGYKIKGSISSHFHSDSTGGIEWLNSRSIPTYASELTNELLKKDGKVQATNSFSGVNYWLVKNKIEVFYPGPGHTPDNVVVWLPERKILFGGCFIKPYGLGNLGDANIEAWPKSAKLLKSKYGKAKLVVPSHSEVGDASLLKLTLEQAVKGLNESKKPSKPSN
Chain of NDM-1 (C7C422 whole entry, looked up, species assumed): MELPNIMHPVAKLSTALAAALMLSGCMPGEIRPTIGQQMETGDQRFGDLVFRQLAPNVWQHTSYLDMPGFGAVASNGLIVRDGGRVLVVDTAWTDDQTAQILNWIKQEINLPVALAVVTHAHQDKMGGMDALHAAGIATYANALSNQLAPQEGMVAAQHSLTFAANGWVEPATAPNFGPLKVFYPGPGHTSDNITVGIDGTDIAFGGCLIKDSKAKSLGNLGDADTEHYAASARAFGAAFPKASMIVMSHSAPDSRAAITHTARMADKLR

Row | SMILES | IC50 (IMP-1) [nM] | IC50 (NDM-1) [nM] | P. aeruginosa expressing IMP-1, efflux− (MB9799) MITC95 [1] [µM] | IC50 (VIM-1) [nM] | Serratia marcescens expressing IMP-1 (CL5741) MITC95 [2] [µM] | Klebsiella pneumoniae expressing VIM-1 (IHMA599644) MITC95 [3] [µM] | Escherichia coli expressing NDM-1 (CLB30016) MITC95 [4] [µM] | P. aeruginosa expressing IMP-1, efflux+ (MB9798) MITC95 [5] [µM] | Efflux ratio [5]
1 | NS(=O)(=O)c1c(S(=O)(=O)C2CNC2)ccc(-c2cccc3cccnc23)c1-c1nnn[nH]1.O=C(O)C(F)(F)F [Example 128, 3-((4-(quinolin-8-yl)-2-sulfamoyl-3-(1H-tetrazol-5-yl)phenyl)sulfonyl)azetidin-1-ium 2,2,2-trifluoroacetate] | 0.524 | 0.134 | 1.563 | 0.314 | 3.125 | 3.125 | 1.563 | 3.125 | 2.00
2 | NS(=O)(=O)c1c(S(=O)(=O)C2CNC2)ccc(-c2cnn3c2CCCC3)c1-c1nnn[nH]1.O=C(O)C(F)(F)F [Example 129, 3-((2-sulfamoyl-4-(4,5,6,7-tetrahydropyrazolo[1,5-a]pyridin-3-yl)-3-(1H-tetrazol-5-yl)phenyl)sulfonyl)azetidin-1-ium 2,2,2-trifluoroacetate] | 2.63 | 0.647 | 1.563 | 1.24 | 6.25 | 6.25 | 6.25 | 25 | 15.99
3 | Cn1ncc2cccc(-c3ccc(S(=O)(=O)C4CNC4)c(S(N)(=O)=O)c3-c3nnn[nH]3)c21.O=C(O)C(F)(F)F [Example 130, 3-((4-(1-methyl-1H-indazol-7-yl)-2-sulfamoyl-3-(1H-tetrazol-5-yl)phenyl)sulfonyl)azetidin-1-ium 2,2,2-trifluoroacetate] | 1.69 | 0.23 | 3.125 | 0.248 | 6.25 | 6.25 | 1.563 | 12.5 | 4.00
4 | NS(=O)(=O)c1c(S(=O)(=O)C2CNC2)ccc(-c2ccc3ccncc3c2)c1-c1nnn[nH]1.O=C(O)C(F)(F)F [Example 131, 3-((4-(isoquinolin-7-yl)-2-sulfamoyl-3-(1H-tetrazol-5-yl)phenyl)sulfonyl)azetidin-1-ium 2,2,2-trifluoroacetate] | 0.51 | 0.345 | 1.563 | 0.13 | 3.125 | 3.125 | 0.7813 | 25 | 15.99
5 | N#CC1(c2ccc(-c3ccc(S(=O)(=O)CCN)c(S(N)(=O)=O)c3-c3nnn[nH]3)cn2)CNC1.O=C(O)C(F)(F)F [Example 132, 2-((4-(6-(3-cyanoazetidin-3-yl)pyridin-3-yl)-2-sulfamoyl-3-(1H-tetrazol-5-yl)phenyl)sulfonyl)ethanaminium 2,2,2-trifluoroacetate] | 1.49 | 3.5 | 1.563 | 1.55 | 1.563 | 3.125 | 0.7813 | 6.25 | 4.00
6 | Cc1nnc2ccc(-c3ccc(S(=O)(=O)CCN)c(S(N)(=O)=O)c3-c3nnn[nH]3)cn12.O=C(O)C(F)(F)F [Example 133, 2-((4-(3-methyl-[1,2,4]triazolo[4,3-a]pyridin-6-yl)-2-sulfamoyl-3-(1H-tetrazol-5-yl)phenyl)sulfonyl)ethanaminium 2,2,2-trifluoroacetate] | 29.4 | 15.6 | 3.125 | 0.968 | 6.25 | 6.25 | 6.25 | 200 | 64.00
7 | NCCS(=O)(=O)c1ccc(-c2cnc3cccnc3c2)c(-c2nnn[nH]2)c1S(N)(=O)=O.O=C(O)C(F)(F)F [Example 134, 2-((4-(1,5-naphthyridin-3-yl)-2-sulfamoyl-3-(1H-tetrazol-5-yl)phenyl)sulfonyl)ethanaminium 2,2,2-trifluoroacetate] | 2.47 | 2.65 | 1.563 | 0.991 | 3.125 | 6.25 | 6.25 | 25 | 15.99
8 | CC(=O)Nc1ccc(-c2ccc(S(=O)(=O)CCN)c(S(N)(=O)=O)c2-c2nnn[nH]2)cn1.O=C(O)C(F)(F)F [Example 135, 2-((4-(6-acetamidopyridin-3-yl)-2-sulfamoyl-3-(1H-tetrazol-5-yl)phenyl)sulfonyl)ethanaminium 2,2,2-trifluoroacetate] | 1.65 | 0.265 | 1.563 | 1.22 | 3.125 | 6.25 | 0.7813 | 3.125 | 2.00
9 | NCCS(=O)(=O)c1ccc(-c2c[nH]c3nccnc23)c(-c2nnn[nH]2)c1S(N)(=O)=O.O=C(O)C(F)(F)F [Example 136, 2-((4-(5H-pyrrolo[2,3-b]pyrazin-7-yl)-2-sulfamoyl-3-(1H-tetrazol-5-yl)phenyl)sulfonyl)ethanaminium 2,2,2-trifluoroacetate] | 1.72 | 2.14 | 0.7813 | 1.19 | 1.563 | 3.125 | 1.563 | 12.5 | 16.00
10 | NCCS(=O)(=O)c1ccc(-c2cnc(O)nc2)c(-c2nnn[nH]2)c1S(N)(=O)=O.O=C(O)C(F)(F)F [Example 137, 2-((4-(2-hydroxypyrimidin-5-yl)-2-sulfamoyl-3-(1H-tetrazol-5-yl)phenyl)sulfonyl)ethanaminium 2,2,2-trifluoroacetate] | 32.6 | 16.8 | 1.563 | 23.5 | 1.563 | 3.125 | 0.7813 | 25 | 15.99
11 | NCCS(=O)(=O)c1ccc(-c2ccnc3ccccc23)c(-c2nnn[nH]2)c1S(N)(=O)=O.O=C(O)C(F)(F)F [Example 138, 2-((4-(quinolin-4-yl)-2-sulfamoyl-3-(1H-tetrazol-5-yl)phenyl)sulfonyl)ethanaminium 2,2,2-trifluoroacetate] | 1.28 | 0.8 | 1.563 | 0.41 | 3.125 | 6.25 | 1.563 | 6.25 | 4.00
12 | CNC(=O)c1ccc(-c2ccc(S(=O)(=O)CCN)c(S(N)(=O)=O)c2-c2nnn[nH]2)cn1.O=C(O)C(F)(F)F [Example 139, 2-((4-(6-(methylcarbamoyl)pyridin-3-yl)-2-sulfamoyl-3-(1H-tetrazol-5-yl)phenyl)sulfonyl)ethanaminium 2,2,2-trifluoroacetate] | 3.32 | 3.96 | 1.563 | 2.04 | 3.125 | 6.25 | 1.563 | 12.5 | 8.00
